Tests used:
SQ-20B cells [1] = experiment: Radiation survival dose response assay; type: cell-based, human; conditions: free ODN 100 μm
Procedure: The appropriate numbers of SQ-20B cells were seeded in duplicate T-25 tissue culture flasks (Corning, N.Y., USA) in medium containing 20% FBS, and allowed to attach for 8 h at 37° C. […] Irradiations were performed using ^137Cs gamma irradiator (JL Shepard MARK I irradiator) and a dose rate of 114 cGy/min. The cells were irradiated with total doses of 1 Gy, 3 Gy, 5 Gy and 13 Gy, followed by incubation for 2 h. The medium in all flasks was then replaced with 20% FBS containing medium and incubations continued for 7–10 days. Surviving colonies were fixed and stained with 0.5% methylene blue and 0.13% carbol fuchsin in methanol. Colonies containing 50 or more cells were scored and data were fitted to the computer-generated single-hit multitarget and linear-quadratic models of radiation survival response.
SQ-20B cells treated with liposome-encapsulated ATG-AS raf ODN (SEQ ID NO:1) are radiosensitive. Radiation survival dose responses of SQ-20B cells exposed to LE-ATG-AS raf ODN (SEQ ID NO:1), LE-ATG-S raf ODN (SEQ ID NO:3), or blank liposomes are presented in Table 1. […] The single-hit, multitarget (target model) and the linear quadratic model (LQ) are most commonly used to analyze cellular radiation survival. The target model is based on the parameters D0 and fl, where D0 is the inverse of the terminal slope of the survival curve and fl is the extrapolation of this slope to the ordinate. […]

SQ-20B tumor cells = experiment: Intracellular stability of antisense raf ODN in DMTAP:PC:CHOL liposomes; type: cell-based, human; conditions: 10 μM, 4 hours, 1% serum
Procedure: Stability experiments: SQ-20B tumor cells were incubated with a mixture of radiolabeled-(^32P-γATP) and 10 μM of unlabeled antisense raf oligonucleotide (ATG-AS (SEQ ID NO:1)) either in the liposome encapsulated form (LE-ATG-AS (SEQ ID NO:1)) (FIG. 19, Lane 1) or free form (ATG-AS (SEQ ID NO:1)) (FIG. 19, lane 2). The treatment lasted for 4 hours at 37° C. in 1% serum containing medium. Immediately following incubation, cells were washed with phosphate buffered saline (PBS), detached by trypsinization, and collected by centrifugation. The cell pellet was washed twice with PBS, and cells were then lysed in 10 mM Tris-HCl, 200 mM NaCl, 1% SDS, 200 μg/ml proteinase K, pH 7.4 for 2 hours at 37° C. Oligos were extracted with phenol:chloroform, and aqueous fraction was collected. The samples were normalized for equal radioactivity, and analyzed hy denaturing gel electrophoresis (15% polyacrylamide/7M urea), followed by autoradiography. […]
Stability experiments: SQ-20B tumor cells were incubated with a mixture of radiolabeled (^32P-γATP) and 10 μM of unlabeled antisense raf oligonucleotide (ATG-AS (SEQ ID NO:1)) in the liposome encapsulated form (LE-ATG-AS (SEQ ID NO:1)). […] The samples were normalized for equal radioactivity, and analyzed by denaturing gel electrophoresis (15% polyacrylamide/7M urea), followed by autoradiography. […]

SQ-20B cells [2] = conditions: free ODN 100 μM, 1% serum, previously demonstrated, cited from earlier work

5′-GTG-CTCCATTGATGC-3′ (antisense GTGCTCCATTGATGC; DNA, linkages s1 o12 s1 (s phosphorothioate, o phosphodiester), methylation of C not given here) [ATG-AS raf ODN, antisense ODN to translation initiation site of human c-raf-1 cDNA; one terminal base linkage at each end phosphorothioate]
dose modifying factor (DMF) (SQ-20B cells [1]): approximately 1.4
integrity of oligonucleotide in treated cells (SQ-20B tumor cells): degraded form
ODN taken up by SQ-20B cells (SQ-20B cells [2]; at 6 hours): < 2%
maximal uptake by SQ-20B cells (SQ-20B cells [2]; at 12 hours): approximately 4%

From patent publication US7262173B2, “Chemosensitizing with liposomes containing oligonucleotides” (Georgetown University, priority 1997, dated 2007)
